Results: paper PMC7804203, “Targeting adaptor protein SLP76 of RAGE as a therapeutic approach for lethal sepsis” (Nature Communications, 2021)
Where “and” joins values, the source holds several entries; their conditions need not be identical. Equal values may be shown once.

Assays:
Assay type in all cases: cell-based
[1] = test system: interaction between RAGE and SLP76 in HEK293 cells; test: Co-IP of Flag-SLP76 with HA-RAGE (HA-tag antibody) in HEK293 cells treated with AGEs; details: Fig. 1c–e
Method: (§1) HEK293 cells (3 × 10^5) were cultured to a confluence of 80–90% in a 60 mm dish. Then, cells were transfected with 2 μg of total DNA by using 6 μl GeneJammer reagent (#204130, Agilent, Santa Clara, CA, USA) mixed with Opti-MEM (200 μl final volume) and were then incubated for 5 min at room temperature. RAW264.7 cells (1 × 10^5) were transfected with control siRNA, siRNA targeting AGER or siRNA targeting SLP76 using HiPerFect reagent (#301705, Qiagen, Hilden, Germany). SiRNA diluted in HiPerFect transfection reagent was premixed with Opti-MEM medium at room temperature for 5 min and incubated with cells in a 24-well plate for 48 h.
After transfection for 24 h, HEK293 cells were treated with AGEs at the indicated times and doses. Then, cells were collected and lysed with lysis buffer, and protein was quantitated with a bicinchoninic acid (BCA) kit (#23227, Thermo Fisher Scientific, Waltham, MA, USA). Total input protein (500 µg) was incubated with anti-FLAG M2 beads or anti-HA affinity gel overnight at 4 °C. After brief centrifugation, samples were washed five times with lysis buffer containing 0.1% Tween 20. Samples were then resolved by SDS-PAGE and subjected to western blotting with a specific antibody against the HA or Flag tag.

[2] = test system: p38 MAPK phosphorylation, RAW264.7 cells; test: Western blot, p38 MAPK phosphorylation in RAW264.7 cells treated with AGEs; details: 15 min (P < 0.05)
Method: (§2) Cultured cells in 6-well plates were harvested, washed twice with PBS, and lysed for 30 min on ice in 150 μl of cell lysis buffer (#9803) from CST (Boston, MA, USA) containing 1 mM PMSF and 2 μg/ml leupeptin. Proteins were quantified with the BCA method. Protein samples were resolved by 10% SDS-PAGE, transferred to a nitrocellulose (NC) membrane (#GE10600002), and blocked for 1 h with 5% nonfat milk in Tris-buffered saline containing 0.1% Tween 20 (TBST) at room temperature. After incubation with a specific primary antibody overnight at 4 °C, the membrane was washed with TBST three times. Then, the membrane was incubated with a secondary antibody for 1 h at room temperature. Enhanced chemiluminescence (ECL) (#32109, Thermo Fisher Scientific, Waltham, MA, USA) was used to visualize the protein bands, and images were acquired in a ChemiDoc™ Imaging System (Bio-Rad, Hercules, CA, USA). Each experiment was repeated at least three times.

[3] = test system: ERK1/2 phosphorylation, RAW264.7 cells; test: Western blot, ERK1/2 phosphorylation in RAW264.7 cells treated with AGEs; details: 15 min (P < 0.05)
Method: as §2

[4] = test system: JNKs phosphorylation, RAW264.7 cells; test: Western blot, JNK phosphorylation in RAW264.7 cells treated with AGEs; details: AGEs 100 μg/ml; for JNK phosphorylation: Supplementary Fig. 4, single runs Exp1-Exp3
Method: as §2

[5] = test system: p38 MAPK phosphorylation, HEK293 cells; test: Western blot, p38 MAPK phosphorylation in transfected HEK293 cells treated with AGEs; details: Fig. 4b, AGEs 100 μg/ml, 15 min, single runs Exp1-Exp3
Method: as §1, §2

[6] = test system: ERK1/2 phosphorylation, HEK293 cells; test: Western blot, ERK1/2 phosphorylation in transfected HEK293 cells treated with AGEs; details: Fig. 4c, AGEs 100 μg/ml, 15 min, single runs Exp1-Exp3
Method: as §1, §2

[7] = test system: IKKα/β phosphorylation, HEK293 cells; test: Western blot, IKKα/β phosphorylation in transfected HEK293 cells treated with AGEs; details: Fig. 4d, AGEs 100 μg/ml, 15 min, single runs Exp1-Exp3
Method: as §1, §2

[8] = test system: p38 MAPK phosphorylation, RAW264.7 cells; test: Western blot, AGE-induced p38 MAPK activation after TAT-fused peptides; details: AGEs+, relative to Ctrl without AGEs = 1
Method: as §2

[9] = test system: ERK1/2 phosphorylation, RAW264.7 cells; test: Western blot, AGE-induced ERK1/2 activation after TAT-fused peptides; details: AGEs+, relative to Ctrl without AGEs = 1
Method: as §2

[10] = test system: IKKα/β phosphorylation, RAW264.7 cells; test: Western blot, AGE-induced IKKα/β activation after TAT-fused peptides; details: AGEs+, relative to Ctrl without AGEs = 1
Method: as §2

AGEs: AGEs-BSA (#2221-10) purchased from Biovision; advanced glycation end products, RAGE ligand
RAGE/SLP76 binding after exposure to AGEs [1]: dose- and time-dependent
Phosphorylation of p38 MAPK [2]: increased significantly
Phosphorylation of ERK1/2 [3]: increased significantly
Phosphorylation of JNKs ([4]; 0-240 min, n=3): no significant difference between groups
JNK phosphorylation ([4]; 5 min): 0.9831 and 1.298 and 1.325
JNK phosphorylation ([4]; 15 min): 1.062 and 0.8245 and 0.7215
JNK phosphorylation ([4]; 30 min): 1.133 and 1.03 and 0.8721
JNK phosphorylation ([4]; 60 min): 1.061 and 0.95 and 0.8845
JNK phosphorylation ([4]; 90 min): 1.254 and 1.05 and 0.7684
JNK phosphorylation ([4]; 120 min): 1.217 and 0.98 and 0.8649
JNK phosphorylation ([4]; 240 min): 1.277 and 0.91 and 0.7954
phosphorylated p38 MAPK ([5]; RAGE overexpressed): 1.6247 and 1.965 and 1.83
phosphorylated p38 MAPK ([5]; RAGE+SLP76 overexpressed): 2.026 and 2.548 and 2.612
phosphorylated p38 MAPK ([5]; SLP76 overexpressed): 1.3753 and 1.591 and 1.725
phosphorylated p38 MAPK ([5]; control vector): 1.2576 and 1.45 and 1.104
phosphorylated ERK1/2 ([6]; RAGE overexpressed): 4.032 and 4.674 and 4.165
phosphorylated ERK1/2 ([6]; RAGE+SLP76 overexpressed): 5.962 and 6.497 and 6.322
phosphorylated ERK1/2 ([6]; SLP76 overexpressed): 3.146 and 2.87 and 3.315
phosphorylated ERK1/2 ([6]; control vector): 3.0116 and 3.25 and 2.795
phosphorylated IKKα/β ([7]; RAGE overexpressed): 12.7634 and 9.791 and 10.05
phosphorylated IKKα/β ([7]; RAGE+SLP76 overexpressed): 21.1403 and 18.74 and 17.6458
phosphorylated IKKα/β ([7]; SLP76 overexpressed): 5.321 and 6.4 and 5.551
phosphorylated IKKα/β ([7]; control vector): 8.805 and 7.3 and 6.5457
Relative p38 MAPK phosphorylation, Supplementary figure 11c ([8]; Exp1): 2.6013
Relative p38 MAPK phosphorylation, Supplementary figure 11c ([8]; Exp2): 2.501
Relative p38 MAPK phosphorylation, Supplementary figure 11c ([8]; Exp3): 3.172
Relative ERK1/2 phosphorylation, Supplementary figure 11d ([9]; Exp1): 3.946
Relative ERK1/2 phosphorylation, Supplementary figure 11d ([9]; Exp2): 5.325
Relative ERK1/2 phosphorylation, Supplementary figure 11d ([9]; Exp3): 6.025
Relative IKKα/β phosphorylation, Supplementary figure 11e ([10]; Exp1): 3.559
Relative IKKα/β phosphorylation, Supplementary figure 11e ([10]; Exp2): 4.547
Relative IKKα/β phosphorylation, Supplementary figure 11e ([10]; Exp3): 6.152
